Assay results published in US9066936B2, “Solid pharmaceutical composition comprising a benzimidazole-7-carboxylate derivative and a pH control agent” (Takeda Pharmaceutical Company Limited, priority 2007, dated 2015).

Experiments:
[1] = Solubility of compound A in aqueous solutions with different pHs; format: physicochemical; conditions: thermodynamic from solid, 25° C.
Description: An excess amount of compound A and an aqueous solution were placed in a test tube, and the mixture was shaken at 25° C. for 30 sec every 5 min. After 30 min, the solution was filtered with a 0.45 μm membrane filter to give a sample. Using the sample, the concentration of compound A was measured under the following HPLC conditions.
detector: ultraviolet absorption photometer,
measurement wavelength: 260 nm
column: YMC-Pack ProC18, 3 μm, inner diameter: 6 mm,
column temperature: 25° C. • mobile phase: 0.05 mol/L phosphate buffer (pH 3.0)/acetonitrile mixed solution (1:1)

[2] = pH of pH control agent dissolved or suspended in water; format: physicochemical; conditions: 1% w/v in water at 25° C.
Description: Here, the pH of the pH control agent is measured under the following conditions. To be precise, it is a pH of a solution or suspension obtained by dissolving or suspending a pH control agent in water at a concentration of 1% w/v at 25° C.
A pH control agent was dissolved or suspended in water at a concentration of 1% w/v at 25° C., and the resulting solution or suspension was measured for pH.

Row | solubility at 30 min ([1]; aqueous buffer, pH 2.0 Britton Robinson buffer) | solubility at 30 min ([1]; aqueous buffer, pH 3.0 Britton Robinson buffer) | solubility at 30 min ([1]; aqueous buffer, pH 4.0 Britton Robinson buffer) | solubility at 30 min ([1]; aqueous buffer, pH 5.0 Britton Robinson buffer) | solubility at 30 min ([1]; aqueous buffer, pH 6.0 Britton Robinson buffer) | solubility at 30 min ([1]; aqueous buffer, pH 7.0 Britton Robinson buffer) | solubility at 30 min ([1]; simulated gastric fluid, 0.1 mol/L HCl) | Compound | pH (25° C.) [2]
1 | < 10 µg/mL | < 10 µg/mL | < 10 µg/mL | < 10 µg/mL | < 10 µg/mL | 940 µg/mL | < 10 µg/mL | CCOc1nc2cccc(C(=O)OCc3oc(=O)oc3C)c2n1Cc1ccc(-c2ccccc2-c2noc(=O)[nH]2)cc1.[K] [compound A, (5-methyl-2-oxo-1,3-dioxol-4-yl)methyl 2-ethoxy-1-{[2′-(5-oxo-4,5-dihydro-1,2,4-oxadiazol-3-yl)biphenyl-4-yl]methyl}-1H-benzimidazole-7-carboxylate potassium salt] | 
2 |  |  |  |  |  |  |  | O=C([O-])/C=C/C(=O)O.[Na+] [monosodium fumarate] | 3.57
3 |  |  |  |  |  |  |  | O=P([O-])(O)O.[Na+] [sodium dihydrogen phosphate] | 4.56
